Consider 5 molecules from patent US10450549B2, “Aryloxyphenoxypropionate tolerance in turfrgass species and use of AAD1 as a selectable marker” (Dow AgroSciences, LLC, priority 2004, dated 2019).

One experiment deals with PAAD1.315.064 ARBTH. Briefly: In vitro plate test of herbicide cross resistance: homozygous T4 AAD1 (v3) Arabidopsis. Conditions: for root ratio / shoot ratio: resistant to sensitive biotype, >2 signifies resistance; for PAAD1.315.064 ARBTH root 150 / PAAD1.315.064 T3 ARBTH shoot 150: 7 days. Type of experiment: in vivo, Arabidopsis thaliana. The gist of the method: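 Surface-sterilised seeds sown in nutrient agar dosed with test compounds from DMSO stocks (final DMSO ≤1% v/v; DMSO-only control), grown 7 days at 25 °C under continuous light (75 μE m^−2 s^−1). Shoot growth reduction scored visually; root length measured (≥5 plants averaged) vs control. I50 calculated for root and shoot.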

The next experiment has as its target T1, AAD1 (v1) (Sphingobium herbicidovorans, UniProt Q8KSC8).
T1 construct: made in house; host or cells: E. coli BL-21 Star (DE3), plasmid pDAB3203
Kind of experiment: HPLC analysis of herbicide degradation by AAD1 (v1) cell extract. Type of experiment: biochemical.

In experiment [1] the test system is creeping bentgrass cv Crenshaw callus. Kind of experiment: Callus selection conditions with quizalofop and haloxyfop: creeping bentgrass. Type of experiment: cell-based, Agrostis stolonifera. As for the experimental part:
Selection conditions for creeping bentgrass cv Crenshaw and Kentucky bluegrass cv Shamrock were established using the grass-active herbicides, quizalofop and haloxyfop. Concentrations of quizalofop and haloxyfop ranged from 0 to 300 nM dissolved in defined callus maintenance media for each species. Callus tissue, derived from mature seeds of each species or cultivar, was used in the experiment. In the case of creeping bentgrass cv Crenshaw, calli maintained on CBG-3 medium were transferred to plates of CBG-3 medium containing either haloxyfop or quizalofop at 0, 50, 100, 150, 200, 250, and 300 nM final concentrations. Visual observations (growth of callus and development of necrosis) were made over a period of 1.5 months. For Kentucky bluegrass cv Shamrock and experimental line A98, calli maintained on KBG-2 were transferred to plates of KBG-2 medium containing 0, 50, 100, 150, 200, 250, and 300 nM final concentrations of the herbicides. Visual observations of callus growth and necrosis were made over a 2.5 month period. […] The calli became necrotic at lower concentrations of quizalofop relative to haloxyfop and the response was more rapid. […]

The test system of experiment [2] is AAD1 (v3)-transformed T0 corn events. Briefly: Tolerance of T0 AAD1 (v3) corn plants (pDAB3404) to postemergence AOPP herbicides. It counts as in vivo.
In experiment [3] the test system is Hi-II corn grown from seed. Briefly: Lethal dose of AOPP herbicides on non-transformed Hi-II corn. As to conditions: for rate that effectively kills (>95% injury) three to four leaf Hi-II corn: postemergence, commercial formulations.

T1 sequence (Q8KSC8 whole entry): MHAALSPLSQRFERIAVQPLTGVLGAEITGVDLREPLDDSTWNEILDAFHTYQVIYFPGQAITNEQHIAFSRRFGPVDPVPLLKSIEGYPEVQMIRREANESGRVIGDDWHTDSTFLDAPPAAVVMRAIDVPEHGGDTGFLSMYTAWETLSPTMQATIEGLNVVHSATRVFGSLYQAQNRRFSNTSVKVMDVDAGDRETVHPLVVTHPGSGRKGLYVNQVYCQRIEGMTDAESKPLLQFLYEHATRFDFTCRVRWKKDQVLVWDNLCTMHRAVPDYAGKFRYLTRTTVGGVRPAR

On to `Nc1c(Cl)c(F)nc(OCC(=O)O)c1Cl` [Fluroxypyr], for which, in the experiment with PAAD1.315.064 ARBTH, the root ratio is given as 1, the shoot ratio turned out to be 0.5, the “PAAD1.315.064 ARBTH root 150” value was 0.2 ppm and the “PAAD1.315.064 T3 ARBTH shoot 150” value is listed as 1 ppm. The “resistance afforded by AAD1 (v3) in plate test” value in the experiment with PAAD1.315.064 ARBTH (root and shoot assessment) is “did not effectively protect”. Besides, the “enzyme activity on substrate (HPLC)” value at AAD1 (v1) (AAD1 (v1) cell extract, same conditions as 2,4-D) was “No enzyme activity was detected”.
For `O=C(O)COc1ccc(Cl)cc1Cl` [2,4-D, 2,4-dichlorophenoxyacetic acid], in the experiment on PAAD1.315.064 ARBTH, the “PAAD1.315.064 ARBTH root 150” value is given as 0.04 ppm and the “PAAD1.315.064 T3 ARBTH shoot 150” value is on record as 10 ppm. Further, the “conversion of 2,4-D to DCP” value at AAD1 (v1) (partially purified proteins, in vitro) is 50-100%. For the same molecule, on AAD1 (v1) (regardless of assay conditions (longer incubations, more enzyme)), the “2,4-D degraded to DCP as measured by HPLC” value is reported as 50-75%.
On to `CC(Oc1ccc(Cl)cc1Cl)C(=O)O` (racemic) [(R,S)-dichlorprop, 2,4-dichlorophenoxypropionic acid], for which, in the experiment with PAAD1.315.064 ARBTH, the root ratio is listed as 150, the shoot ratio was 2.5, the “PAAD1.315.064 ARBTH root 150” value was 1.5 ppm and the “PAAD1.315.064 T3 ARBTH shoot 150” value came to 5 ppm.
Turning to `CC(Oc1ccc(Oc2ncc(C(F)(F)F)cc2Cl)cc1)C(=O)O` (stereo not drawn) [haloxyfop], the “concentration sufficient to kill callus within six weeks” value in experiment [1] was 250 nM. The “% Injury 14 DAT” value in experiment [2] (8.8 g ae/ha, construct 3404 event 001 clone 016) worked out at 0%; in experiment [2] (8.8 g ae/ha, construct 3404 event 022 clone 019) it was 0%; in experiment [2] (8.8 g ae/ha, construct 3404 event 038 clone 016), 0%; in experiment [2] (17.5 g ae/ha, construct 3404 event 022 clone 016), 0%; in experiment [2] (17.5 g ae/ha, construct 3404 event 022 clone 020) it was 0%. Moreover, the lethal dose in experiment [3] (Gallant super + 1% COC (v/v)) is recorded as 8.8 g ae/ha). Moreover, the “rate that effectively kills (>95% injury) three to four leaf Hi-II corn” value in experiment [3] is listed as 8.8 g ae/ha.
As for `C[C@@H](Oc1ccc(Oc2cnc3cc(Cl)ccc3n2)cc1)C(=O)O` [quizalofop], the “concentration sufficient to kill callus within six weeks” value in experiment [1] amounted to 150 nM. For the same molecule, the “injury of most AAD1 (v3) T0 lines” value in experiment [2] (8× field dose (64× lethal dose), 14 DAT) was “no visible injury”. The “% Injury 14 DAT” value in experiment [2] (8.8 g ae/ha, construct 3404 event 001 clone 017) stood at 0%; in experiment [2] (8.8 g ae/ha, construct 3404 event 001 clone 019), 30%; in experiment [2] (8.8 g ae/ha, construct 3404 event 022 clone 021), 0%; in experiment [2] (8.8 g ae/ha, construct 3404 event 038 clone 017), 0%; in experiment [2] (17.5 g ae/ha, construct 3404 event 022 clone 017), 0%; in experiment [2] (35 g ae/ha, construct 3404 event 001 clone 020), 0%. Moreover, the “% Injury 14 DAT” value came out at 0% in experiment [2] (35 g ae/ha, construct 3404 event 017 clone 018); 0% in experiment [2] (35 g ae/ha, construct 3404 event 017 clone 019); 0% in experiment [2] (35 g ae/ha, construct 3404 event 022 clone 022); 0% in experiment [2] (35 g ae/ha, construct 3404 event 033 clone 012); 70% in experiment [2] (35 g ae/ha, construct 3404 event 038 clone 019); 80% in experiment [2] (35 g ae/ha, construct 3404 event 038 clone 020). For the same molecule, the “% Injury 14 DAT” value in experiment [2] (70 g ae/ha, construct 3404 event 017 clone 020) came out at 0%; in experiment [2] (70 g ae/ha, construct 3404 event 017 clone 021), 0%; in experiment [2] (70 g ae/ha, construct 3404 event 022 clone 023), 0%; in experiment [2] (70 g ae/ha, construct 3404 event 033 clone 013), 0%; in experiment [2] (70 g ae/ha, construct 3404 event 033 clone 014) it was 0%; in experiment [2] (70 g ae/ha, construct 3404 event 038 clone 021), 80%. For the same molecule, the “% Injury 14 DAT” value came to 80% in experiment [2] (70 g ae/ha, construct 3404 event 038 clone 022); 0% in experiment [2] (140 g ae/ha, construct 3404 event 017 clone 022); 30% in experiment [2] (140 g ae/ha, construct 3404 event 017 clone 023); 0% in experiment [2] (140 g ae/ha, construct 3404 event 033 clone 015); 30% in experiment [2] (280 g ae/ha, construct 3404 event 017 clone 024); 20% in experiment [2] (280 g ae/ha, construct 3404 event 017 clone 025). Moreover, the “% Injury 14 DAT” value in experiment [2] (280 g ae/ha, construct 3404 event 033 clone 016) is listed as 0%. Moreover, the lethal dose in experiment [3] (Assure II + 1% COC (v/v)) was 4.4 g ae/ha). Further, the “rate that effectively kills (>95% injury) three to four leaf Hi-II corn” value in experiment [3] was determined as 4.4 g ae/ha.
